Test results published in patent US8952024B2, “Herbicidal pyrimidone derivatives” (E I du Pont de Nemours and Company, priority 2009, dated 2015).

Assays:
Format in all cases: in vivo
[1] = tested on: barnyardgrass (Echinochloa crus-galli); experiment: Test A pre-/postemergence plant response; conditions: for Barnyardgrass plant response rating: visual injury, 0 to 100 scale (0 no effect, 100 complete control), approx. ten days
Text: (§1) Seeds of barnyardgrass (Echinochloa crus-galli), large crabgrass (Digitaria sanguinalis), giant foxtail (Setaria faberii), morningglory (Ipomoea spp.), pigweed (Amaranthus retroflexus), velvetleaf (Abutilon theophrasti), wheat (Triticum aestivum) and corn (Zea mays) were planted into a blend of loam soil and sand and treated preemergence with a directed soil spray using test chemicals formulated in a non-phytotoxic solvent mixture which included a surfactant. At the same time these species were also treated with postemergence applications of test compounds formulated in the same manner.
(§2) Plants ranged in height from two to ten cm and were in the one- to two-leaf stage for the postemergence treatment. Treated plants and untreated controls were maintained in a greenhouse for approximately ten days, after which time all treated plants were compared to untreated controls and visually evaluated for injury. Plant response ratings, summarized in Table A, are based on a 0 to 100 scale where 0 is no effect and 100 is complete control. A dash (-) response means no test result.

corn (Zea mays) = experiment: Test A pre-/postemergence plant response; conditions: for Corn plant response rating: visual injury, 0 to 100 scale (0 no effect, 100 complete control), approx. ten days
Text: as §1, §2

[2] = tested on: giant foxtail (Setaria faberii); experiment: Test A pre-/postemergence plant response
Text: as §1, §2

[3] = tested on: large crabgrass (Digitaria sanguinalis); experiment: Test A pre-/postemergence plant response; conditions: for Crabgrass, Large plant response rating: visual injury, 0 to 100 scale (0 no effect, 100 complete control), approx. ten days
Text: as §1, §2

[4] = tested on: morningglory (Ipomoea spp.); experiment: Test A pre-/postemergence plant response
Text: as §1, §2

[5] = tested on: pigweed (Amaranthus retroflexus); experiment: Test A pre-/postemergence plant response
Text: as §1, §2

[6] = tested on: velvetleaf (Abutilon theophrasti); experiment: Test A pre-/postemergence plant response
Text: as §1, §2

[7] = tested on: wheat (Triticum aestivum); experiment: Test A pre-/postemergence plant response
Text: as §1, §2

[8] = tested on: barnyardgrass (Echinochloa crus-galli); experiment: Test B flooded paddy test; conditions: for Plant response rating, Flood, Barnyardgrass: 250 g ai/ha, flooded paddy test, visual rating on 0 to 100 scale (0 no effect, 100 complete control) after 13 to 15 days; for Plant response rating, Barnyardgrass: Flood (flooded paddy test), 13 to 15 days; for Barnyardgrass plant response rating: Flood, 31 g ai/ha, scale 0 to 100 (0 no effect, 100 complete control)
How it was run: (§3)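 Visual scores run from 0 (no effect) to 100 (complete control), assigned by comparison with controls 13 to 15 days after treatment. Test compounds went straight into water standing 3 cm above the soil, around plants at the 2-leaf stage kept in a greenhouse.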

[9] = tested on: ducksalad (Heteranthera limosa); experiment: Test B flooded paddy test; conditions: for Plant response rating, Flood, Ducksalad: 250 g ai/ha, flooded paddy test, visual rating on 0 to 100 scale (0 no effect, 100 complete control) after 13 to 15 days; for Plant response rating, Ducksalad: Flood (flooded paddy test), 13 to 15 days; for Ducksalad plant response rating: Flood, 31 g ai/ha, scale 0 to 100 (0 no effect, 100 complete control)
How it was run: as §3

rice (Oryza sativa) = experiment: Test B flooded paddy test; conditions: for Plant response rating, Flood, Rice: 250 g ai/ha, flooded paddy test, visual rating on 0 to 100 scale (0 no effect, 100 complete control) after 13 to 15 days; for Plant response rating, Rice: Flood (flooded paddy test), 13 to 15 days; for Rice plant response rating: Flood, 31 g ai/ha, scale 0 to 100 (0 no effect, 100 complete control)
How it was run: as §3

[10] = tested on: umbrella sedge (Cyperus difformis); experiment: Test B flooded paddy test; conditions: for Plant response rating, Flood, Sedge, Umbrella: 250 g ai/ha, flooded paddy test, visual rating on 0 to 100 scale (0 no effect, 100 complete control) after 13 to 15 days; for Plant response rating, Sedge, Umbrella: Flood (flooded paddy test), 13 to 15 days; for Sedge, Umbrella plant response rating: Flood, 31 g ai/ha, scale 0 to 100 (0 no effect, 100 complete control)
How it was run: as §3

[11] = Postemergence, 125 g ai/ha, 0 to 100 scale where 0 is no effect and 100 is complete control
[12] = Preemergence, 125 g ai/ha, 0 to 100 scale where 0 is no effect and 100 is complete control, approximately ten days
[13] = Preemergence, 500 g ai/ha, 0 to 100 scale, 0 = no effect, 100 = complete control
[14] = Postemergence, 125 g ai/ha, visual injury, 0 to 100 scale (0 no effect, 100 complete control), approx. ten days
[15] = Postemergence, 500 g ai/ha, visual injury, 0 to 100 scale (0 no effect, 100 complete control), approx. ten days
[16] = 62 g ai/ha, scale of 0 to 100 where 0 is no effect and 100 is complete control
[17] = 125 g ai/ha, scale 0 to 100, 0 is no effect, 100 is complete control
[18] = Preemergence, 125 g ai/ha, 0 to 100 scale, 0 = no effect, 100 = complete control

O=C(C1=C(O)C2CCC(C2)C1=O)c1cnc(-c2ccccc2)n(C2CCOCC2)c1=O (stereo not drawn) [Compound 249]
85: Plant response rating, Sedge, Umbrella [10, 17]
70: Plant response rating, Morningglory [4, 13]
60: Plant response rating, Velvetleaf [6, 12] | Plant response rating, Sedge, Umbrella [10, 16]
90: Plant response rating, Barnyardgrass [1, 11] | Foxtail, Giant plant response rating [2, 15] | Plant response rating, Crabgrass, Large [3, 11] | Plant response rating, Pigweed [5, 14] | Plant response rating, Velvetleaf [6, 13] | Plant response rating, Flood, Ducksalad [9] | Plant response rating, Flood, Sedge, Umbrella [10]
20: Corn plant response rating (corn (Zea mays); Postemergence, 500 g ai/ha) | Plant response rating, Foxtail, Giant [2, 12]
65: Plant response rating, Ducksalad [9, 16]
15: Plant response rating, Flood, Rice (rice (Oryza sativa))
50: Wheat plant response rating [7, 15]
30: Plant response rating, Morningglory [4, 12]
10: Plant response rating, Wheat [7, 14]
40: Plant response rating, Barnyardgrass [1, 13] | Plant response rating, Foxtail, Giant [2, 13] | Plant response rating, Crabgrass, Large [3, 12]
80: Plant response rating, Foxtail, Giant [2, 14] | Plant response rating, Crabgrass, Large [3, 13] | Plant response rating, Pigweed [5, 12] | Plant response rating, Ducksalad [9, 17]
100: Barnyardgrass plant response rating ([1]; Postemergence, 500 g ai/ha) | Crabgrass, Large plant response rating ([3]; Postemergence, 500 g ai/ha) | Plant response rating, Morningglory [4, 14] | Morningglory plant response rating [4, 15] | Pigweed plant response rating [5, 15] | Plant response rating, Pigweed [5, 13] | Plant response rating, Velvetleaf [6, 14] | Velvetleaf plant response rating [6, 15]
0: Plant response rating, Barnyardgrass [1, 12] | Plant response rating, Corn (corn (Zea mays); [11]) | Plant response rating, Corn (corn (Zea mays); [12]) | Plant response rating, Corn (corn (Zea mays); [13]) | Plant response rating, Wheat [7, 12] | Plant response rating, Wheat [7, 13] | Plant response rating, Flood, Barnyardgrass [8] | Plant response rating, Barnyardgrass [8, 16] | Plant response rating, Barnyardgrass [8, 17] | Barnyardgrass plant response rating [8] | Ducksalad plant response rating [9] | Plant response rating, Rice (rice (Oryza sativa); [16]) | Plant response rating, Rice (rice (Oryza sativa); [17]) | Rice plant response rating (rice (Oryza sativa)) | Sedge, Umbrella plant response rating [10]

Cc1ccc(F)cc1-n1c(-c2cc(F)cc(F)c2)ncc(C(=O)C2=C(O)CCCC2=O)c1=O [Compound 183]
0: Plant response rating, Corn (corn (Zea mays); [18]) | Plant response rating, Corn (corn (Zea mays); [13]) | Plant response rating, Wheat [7, 18] | Plant response rating, Barnyardgrass [8, 16] | Plant response rating, Barnyardgrass [8, 17] | Barnyardgrass plant response rating [8] | Plant response rating, Flood, Rice (rice (Oryza sativa)) | Plant response rating, Rice (rice (Oryza sativa); [16]) | Plant response rating, Rice (rice (Oryza sativa); [17]) | Rice plant response rating (rice (Oryza sativa)) | Sedge, Umbrella plant response rating [10]
35: Plant response rating, Flood, Barnyardgrass [8]
10: Plant response rating, Corn (corn (Zea mays); [11])
60: Plant response rating, Barnyardgrass [1, 11] | Plant response rating, Foxtail, Giant [2, 18]
90: Barnyardgrass plant response rating ([1]; Postemergence, 500 g ai/ha) | Plant response rating, Foxtail, Giant [2, 13] | Plant response rating, Crabgrass, Large [3, 18] | Plant response rating, Pigweed [5, 18] | Plant response rating, Flood, Sedge, Umbrella [10]
70: Morningglory plant response rating [4, 15]
65: Plant response rating, Ducksalad [9, 16] | Plant response rating, Sedge, Umbrella [10, 17]
100: Plant response rating, Barnyardgrass [1, 13] | Foxtail, Giant plant response rating [2, 15] | Crabgrass, Large plant response rating ([3]; Postemergence, 500 g ai/ha) | Plant response rating, Crabgrass, Large [3, 13] | Plant response rating, Pigweed [5, 11] | Pigweed plant response rating [5, 15] | Plant response rating, Pigweed [5, 13] | Plant response rating, Velvetleaf [6, 11] | Velvetleaf plant response rating [6, 15] | Plant response rating, Velvetleaf [6, 18] | Plant response rating, Velvetleaf [6, 13]
30: Ducksalad plant response rating [9]
95: Plant response rating, Flood, Ducksalad [9]
80: Corn plant response rating (corn (Zea mays); Postemergence, 500 g ai/ha) | Plant response rating, Foxtail, Giant [2, 11] | Plant response rating, Crabgrass, Large [3, 11] | Wheat plant response rating [7, 15] | Plant response rating, Ducksalad [9, 17]
40: Plant response rating, Morningglory [4, 11]
50: Plant response rating, Morningglory [4, 13] | Plant response rating, Wheat [7, 11] | Plant response rating, Wheat [7, 13] | Plant response rating, Sedge, Umbrella [10, 16]
20: Plant response rating, Barnyardgrass [1, 18] | Plant response rating, Morningglory [4, 18]
